Among the data in patent US20250302815A1, “PROTEIN TYROSINE PHOSPHATASE TARGETING LIGANDS” (CALICO LIFE SCIENCES LLC, priority 2021, published 2025) are DC50 values, retold here.

Each structure is given as a SMILES string.

Assay [1] deals with T1, PTPN2 (B16F10.4 cells) (Mus musculus, UniProt Q06180).
T1 construct: HiBiT; host or cells: B16F10.4
T1 sequence (Q06180 1-406): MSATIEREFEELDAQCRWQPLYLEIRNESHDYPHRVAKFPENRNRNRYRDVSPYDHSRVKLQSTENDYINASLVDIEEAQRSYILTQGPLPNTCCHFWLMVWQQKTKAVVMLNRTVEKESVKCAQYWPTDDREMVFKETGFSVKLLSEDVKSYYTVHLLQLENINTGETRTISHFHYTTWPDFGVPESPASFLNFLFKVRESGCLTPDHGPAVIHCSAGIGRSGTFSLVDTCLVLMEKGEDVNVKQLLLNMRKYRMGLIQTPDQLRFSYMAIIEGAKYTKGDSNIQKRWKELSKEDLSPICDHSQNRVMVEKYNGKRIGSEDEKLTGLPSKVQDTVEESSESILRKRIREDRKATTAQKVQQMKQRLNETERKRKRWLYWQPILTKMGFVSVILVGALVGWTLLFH
In words: HiBiT Degradation B16F10.4 PTPN2. The conditions noted are these: 24.0 hours. Type of assay: cell-based. A general note: HiBiT is a short tag that completes a luciferase, so light tracks the accessible tagged protein.

The target of assay [2] is T2, PTPN2 (HiBIT-PTPN2 in 293T.109 cells) (Homo sapiens, UniProt P17706).
T2 construct: expressed in transfected cells; host or cells: 293T.109 (293T WT from ATCC)
T2 sequence (P17706 1-415): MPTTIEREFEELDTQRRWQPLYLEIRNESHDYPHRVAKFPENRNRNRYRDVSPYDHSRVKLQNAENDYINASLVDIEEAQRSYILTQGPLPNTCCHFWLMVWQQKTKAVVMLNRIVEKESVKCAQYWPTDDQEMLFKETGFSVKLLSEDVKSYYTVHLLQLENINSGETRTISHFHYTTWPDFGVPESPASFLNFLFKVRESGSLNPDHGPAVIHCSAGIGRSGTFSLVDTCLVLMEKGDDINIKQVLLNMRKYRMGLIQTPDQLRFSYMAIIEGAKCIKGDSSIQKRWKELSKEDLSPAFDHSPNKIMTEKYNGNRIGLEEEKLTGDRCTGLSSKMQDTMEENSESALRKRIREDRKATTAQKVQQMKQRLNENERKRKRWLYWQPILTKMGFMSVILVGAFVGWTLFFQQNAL
In words: HiBiT Degradation 293T.109 PTPN2 (Nano-Glo HiBiT Lytic Assay). It is filed as cell-based. The conditions noted are these: 24.0 hours. An outline of the steps: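 Degradation read-out: lytic HiBiT luminescence after 24 h treatment (37 °C, 5% CO2) of 5000 293T cells per well expressing HiBiT-fused PTPN2 from an N-terminal tag. Dosing was 11 points, half-log steps down from 10 μM, in duplicate; vehicle-treated and no-reagent wells served as controls.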

Consider `O=C(O)COc1c(C(=O)O)sc(-c2cccc(NC3CCN(S(=O)(=O)Cc4cccc(NC(=O)CCCCCN5CCC(Nc6cccc7c6CN(C6CCC(=O)NC6=O)C7=O)CC5)c4)CC3)c2)c1Cl` (stereo not shown) [Example 33, 3-(carboxymethoxy)-4-chloro-5-[3-[[1-[[3-[6-[4-[[2-(2,6-dioxo-3-piperidyl)-1-oxo-isoindolin-4-yl]amino]-1-piperidyl]hexanoylamino]phenyl]methylsulfonyl]-4-piperidyl]amino]phenyl]thiophene-2-carboxylic acid], for which the DC50 (usually the midpoint of the concentration-degradation curve) was not below 1000 nM in assay [1] and 200 to 1000 nM in assay [2].

`Cn1c(=O)n([C@H]2CCC(=O)NC2=O)c2ccc(C3CCN(C(=O)Nc4cccc(CS(=O)(=O)N5CC[C@H](Nc6cccc(-c7sc(C(=O)O)c(OCC(=O)O)c7Cl)c6)CC5(C)C)c4)CC3)cc21` (single isomer, unassigned) [Example 234]: the DC50 in assay [1] and in assay [2] was less than 50 nM in each case.

In the case of `CC1(C)C[C@H](Nc2cccc(-c3sc(C(=O)O)c(OCC(=O)O)c3Cl)c2)CCN1S(=O)(=O)Cc1cccc(NC(=O)CCn2cc(CNc3cccc4c3C(=O)N(C3CCC(=O)NC3=O)C4=O)nn2)c1` (stereo partly drawn) [Example 14, 3-(carboxymethoxy)-4-chloro-5-(3-(((4R)-1-((3-(3-(4-(((2-(2,6-dioxopiperidin-3-yl)-1,3-dioxoisoindolin-4-yl)amino)methyl)-1H-1,2,3-triazol-1-yl)propanamido)benzyl)sulfonyl)-2,2-dimethylpiperidin-4-yl)amino)phenyl)thiophene-2-carboxylic acid], the DC50 in assay [1] is not below 1000 nM; in assay [2], 200 to 1000 nM.

Regarding `CC1(C)C[C@H](Nc2cccc(-c3sc(C(=O)O)c(OCC(=O)O)c3Cl)c2F)CCN1S(=O)(=O)Cc1ccc(F)c(NC(=O)C2CN(C(=O)CNc3cccc4c3CN(C3CCC(=O)NC3=O)C4=O)C2)c1` (stereo partly shown) [Example 149], the DC50 was not below 1000 nM in assay [1] and 50 to 200 nM in assay [2].

For `CC1(C)C[C@@H](Nc2cccc(-c3sc(C(=O)O)c(OCC(=O)O)c3Cl)c2)CCN1S(=O)(=O)Cc1cccc(NC(=O)NCCCc2ccc3c4c(cccc24)N(C2CCC(=O)NC2=O)C3=O)c1` (stereo partly drawn) [Example 177, 3-(carboxymethoxy)-4-chloro-5-[3-[[(4S)-1-[3-[3-[[1-(2,6-dioxo-3-piperidyl)-2-oxo-benzo[cd]indol-5-yl]propylcarbamoylamino]phenyl]methylsulfonyl]-2,2-dimethyl-4-piperidyl]amino]phenyl]thiophene-2-carboxylic acid], the 50% degradation concentration (DC50) in assay [1] and in assay [2] was 50 to 200 nM in each case.

For the molecule `CC1(C)C[C@H](Nc2cccc(-c3sc(C(=O)O)c(OCC(=O)O)c3Cl)c2)CCN1S(=O)(=O)Cc1ccc(F)c(NC(=O)C2CN(C(=O)CNc3cccc4c3CN(C3CCC(=O)NC3=O)C4=O)C2)c1` (stereo partly shown) [Example 108], the DC50 in assay [1] is not below 1000 nM; in assay [2] it was 50 to 200 nM.

For the molecule `Cn1c(=O)n(C2CCC(=O)NC2=O)c2ccc(CN3CCN(C(=O)Nc4cccc(CS(=O)(=O)N5CC[C@H](Nc6cccc(-c7sc(C(=O)O)c(OCC(=O)O)c7Cl)c6)CC5(C)C)c4)CC3)cc21` (stereo partly drawn) [Example 221, 3-(carboxymethoxy)-4-chloro-5-[3-[[(4S)-1-[[3-[[4-[[1-(2,6-dioxo-3-piperidyl)-3-methyl-2-oxo-benzimidazol-5-yl]methyl]piperazine-1-carbonyl]amino]phenyl]methylsulfonyl]-2,2-dimethyl-4-piperidyl]amino]phenyl]thiophene-2-carboxylic acid], the DC50 in assay [1] and in assay [2] was 200 to 1000 nM in each case.

Regarding `CC1(C)C[C@@H](Nc2cccc(-c3sc(C(=O)O)c(OCC(=O)O)c3Cl)c2)CCN1S(=O)(=O)Cc1cccc(NC(=O)OC2CCN(C(=O)CNc3cccc4c3CN(C3CCC(=O)NC3=O)C4=O)CC2)c1` (stereo partly shown) [Example 85], the DC50 in assay [1] was in the range of 200 to 1000 nM; in assay [2], 50 to 200 nM.

As to `O=C(O)COc1c(C(=O)O)sc(-c2cccc(NC3CCN(S(=O)(=O)Cc4cccc(NC(=O)N5CCC(Nc6cccc7c6CN(C6CCC(=O)NC6=O)C7=O)CC5)c4)CC3)c2)c1Cl` (stereo not shown) [Example 59, 3-(carboxymethoxy)-4-chloro-5-[3-[[1-[[3-[[4-[[2-(2,6-dioxo-3-piperidyl)-1-oxo-isoindolin-4-yl]amino]piperidine-1-carbonyl]amino]phenyl]methylsulfonyl]-4-piperidyl]amino]phenyl]thiophene-2-carboxylic acid], the DC50 in assay [1] and in assay [2] was 200 to 1000 nM in each case.

Regarding `CC1(C)C[C@H](Oc2cccc(-c3sc(C(=O)O)c(OCC(=O)O)c3Cl)c2)CCN1S(=O)(=O)Cc1cccc(NC(=O)N2CCC(c3ccc4c5c(cccc35)C(=O)N4C3CCC(=O)NC3=O)CC2)c1` (stereo partly drawn) [Example 227, 3-(carboxymethoxy)-4-chloro-5-(3-(((4R)-1-((3-(4-(1-(2,6-dioxopiperidin-3-yl)-2-oxo-1,2-dihydrobenzo[cd]indol-6-yl)piperidine-1-carboxamido)benzyl)sulfonyl)-2,2-dimethylpiperidin-4-yl)oxy)phenyl)thiophene-2-carboxylic acid], the DC50 lay in the range of 50 to 200 nM in assay [1] and 200 to 1000 nM in assay [2].

As to `Cn1c(=O)n(C2CCC(=O)NC2=O)c2ccc(C3CCN(C(=O)Nc4cccc(CS(=O)(=O)N5CCC(Nc6cccc(-c7sc(C(=O)O)c(OCC(=O)O)c7Cl)c6)CC5)c4F)CC3)cc21` (stereo not shown) [Example 99, 3-(carboxymethoxy)-4-chloro-5-[3-[[1-[[3-[[4-[1-(2,6-dioxo-3-piperidyl)-3-methyl-2-oxo-benzimidazol-5-yl]piperidine-1-carbonyl]amino]-2-fluoro-phenyl]methylsulfonyl]-4-piperidyl]amino]phenyl]thiophene-2-carboxylic acid], the values for the DC50 in assay [1] and in assay [2] were less than 50 nM and 50 to 200 nM, respectively.

Regarding `O=C(O)COc1c(C(=O)O)sc(-c2cccc(NC3CCN(S(=O)(=O)Cc4cccc(NC(=O)C5CN(C(=O)CNc6cccc7c6CN(C6CCC(=O)NC6=O)C7=O)C5)c4F)CC3)c2)c1Cl` (stereo not shown) [Example 75], the DC50 in assay [1] is not below 1000 nM; in assay [2], less than 50 nM.

On to `CC1(C)C[C@@H](Nc2cccc(-c3sc(C(=O)O)c(OCC(=O)O)c3Cl)c2)CCN1S(=O)(=O)Cc1cccc(NC(=O)N2CCC[C@H](c3ccc4c5c(cccc35)N(C3CCC(=O)NC3=O)C4=O)CC2)c1` (stereo partly drawn) [Example 223, 3-(carboxymethoxy)-4-chloro-5-(3-(((4S)-1-((3-((4S)-4-(1-(2,6-dioxopiperidin-3-yl)-2-oxo-1,2-dihydrobenzo[cd]indol-5-yl)azepane-1-carboxamido)benzyl)sulfonyl)-2,2-dimethylpiperidin-4-yl)amino)phenyl)thiophene-2-carboxylic acid], for which the DC50 in assay [1] lay in the range of 50 to 200 nM; in assay [2] it was 200 to 1000 nM.

In the case of `Cn1c(=O)n(C2CCC(=O)NC2=O)c2ccc(Nc3cccc(CC(=O)Nc4cccc(CS(=O)(=O)N5CC[C@H](Nc6cccc(-c7sc(C(=O)O)c(OCC(=O)O)c7Cl)c6)CC5(C)C)c4)c3)cc21` (stereo partly drawn) [Example 191, 3-(carboxymethoxy)-4-chloro-5-(3-(((4S)-1-((3-(2-(3-((1-(2,6-dioxopiperidin-3-yl)-3-methyl-2-oxo-2,3-dihydro-1H-benzo[d]imidazol-5-yl)amino)phenyl)acetamido)benzyl)sulfonyl)-2,2-dimethylpiperidin-4-yl)amino)phenyl)thiophene-2-carboxylic acid], the DC50 in assay [1] and in assay [2] was 50 to 200 nM in each case.
